Reference: patent publication US20030104063A1, “Pharmaceutical compositions of dispersions of amorphous drugs mixed with polymers” (priority 2001, published 2003)
Blank lines part the entries; values can stand above or below the compound they belong to.

What was measured:
Assay type in all cases: physicochemical
[1] = In vitro dissolution test of Drug 2 compositions in PBS with sodium taurocholic acid/POPC (microcentrifuge, HPLC); details: for Drug 2 Concentration: PBS with sodium taurocholic acid/POPC, 37° C.
Protocol: Example 5 was prepared by combining the drug/matrix dispersion of Drug 2 and polyethylene glycol with the concentration-enhancing polymer HPMCAS. Example 5 was evaluated in an in vitro dissolution test using a microcentrifuge method. In this test, 18 mg of the dispersion was added to each of two microcentrifuge tubes. The tubes were placed in a 37° C. temperature-controlled chamber, and 1.8 mL PBS containing 7.3 mM sodium taurocholic acid and 1.4 mM 1-palmitoyl-2-oleyl-sn-glycero-3-phosphocholine, with 7.2 mg HPMCAS-MF, was added. The tests were sampled as described in Example 1, and analyzed using HPLC. Samples were collected at 4, 10, 20, 40, 90, and 1200 minutes.

[2] = In vitro dissolution test of Drug 3 compositions in PBS (microcentrifuge, HPLC); details: for Drug 3 Concentration: PBS, 37° C.
Protocol: Example 6 was prepared by combining the dispersion with the concentration-enhancing polymer HPMCAS. 7.2 mg of the dispersion of Example 6 was added to microcentrifuge tubes. Tests were performed in duplicate. The tubes were placed in a 37° C. temperature-controlled chamber, and 1.8 mL PBS with 5.4 mg HPMCAS-MF was added. The tests were sampled as described in Example 1, and analyzed using HPLC.

[3] = In vitro dissolution test of Drug 4 compositions in PBS (microcentrifuge, HPLC); set-up: AUC: concentration or dose not given beside the values; details: for Drug 4 Concentration: PBS, 37° C.
Protocol: Tests were performed in duplicate. The tubes were placed in a 37° C. temperature-controlled chamber, and 1.8 mL PBS with 7.2 mg PVA was added. The tests were sampled as described in Example 1, and analyzed using HPLC. HPLC analysis was performed using a Zorbax SB C18 column, with a mobile phase of 35 vol. % water and 65 vol. % methanol. UV absorbance of Drug 4 was measured at 297 nm.

[4] = In vitro dissolution test of Drug 5 compositions in MFDS pH 6.5 (microcentrifuge, HPLC); details: for Drug 5 Concentration: MFDS pH 6.5, 37° C.
Protocol: Example 10 was prepared by combining the above amorphous dispersion with the concentration-enhancing polymer hydroxypropyl methylcellulose (HPMC E3 Prem LV, Dow Chemical Co.). 1.4 mg of the amorphous dispersion was added to microcentrifuge tubes. The tubes were placed in a 37° C. temperature-controlled chamber, and 1.8 mL PBS containing 0.5 wt % sodium taurocholic acid/1-palmitoyl-2-oleyl-sn-glycero-3-phosphocholine (MFDS, pH 6.5) and 0.4 mg HPMC was added. The tests were sampled as described in Example 1, and analyzed using HPLC.
For Control C12, in vitro dissolution tests were performed using the precedures described above except that 1.4 mg of the amorphous dispersion was tested without concentration-enhancing polymer (HPMC) in the test solution.

SMILES: CCC(CC)Oc1c(C)cnc(Oc2c(C)cc(C)cc2C)c1C [Control C7, 3,5-dimethyl-4-(3′-pentoxy)-2-(2′, 4′, 6′-trimethylphenoxy) pyridine]
Drug 2 Concentration ([1]; 0 min): 0 µg/mL
Drug 2 Concentration ([1]; 4 min): 16 µg/mL
Drug 2 Concentration ([1]; 10 min): 33 µg/mL
Drug 2 Concentration ([1]; 20 min): 32 µg/mL
Drug 2 Concentration ([1]; 40 min): 30 µg/mL
Drug 2 Concentration ([1]; 90 min): 39 µg/mL
Drug 2 Concentration ([1]; 1200 min): 37 µg/mL
AUC ([1]; Drug 2, 0 min): 0 µg·min/mL
AUC ([1]; Drug 2, 4 min): 0 µg·min/mL
AUC ([1]; Drug 2, 10 min): 200 µg·min/mL
AUC ([1]; Drug 2, 20 min): 500 µg·min/mL
AUC ([1]; Drug 2, 40 min): 1,100 min*μg/mL
AUC ([1]; Drug 2, 90 min): 2,800 min*μg/mL
AUC ([1]; Drug 2, 1200 min): 45,000 min*μg/mL
AUC90 ([1]; Drug 2, area under the concentration versus time curve after 90 minutes): 2800 µg·min/mL
C1200 ([1]; Drug 2 concentration at 1200 minutes): 37 µg/mL
Cmax,90 ([1]; maximum concentration of Drug 2 in solution during the first 90 minutes): 39000 ng/mL

Drug 3 Concentration ([2]; 0 min): <1 µg/mL
Drug 3 Concentration ([2]; 4 min): <1 µg/mL
Drug 3 Concentration ([2]; 10 min): <1 µg/mL
Drug 3 Concentration ([2]; 20 min): <1 µg/mL
Drug 3 Concentration ([2]; 40 min): <1 µg/mL
Drug 3 Concentration ([2]; 90 min): <1 µg/mL
Drug 3 Concentration ([2]; 1200 min): <1 µg/mL
AUC ([2]; Drug 3, 0 min): <1 µg·min/mL
AUC ([2]; Drug 3, 4 min): <1 µg·min/mL
AUC ([2]; Drug 3, 10 min): <1 µg·min/mL
AUC ([2]; Drug 3, 20 min): <1 µg·min/mL
AUC ([2]; Drug 3, 40 min): <1 µg·min/mL
AUC ([2]; Drug 3, 90 min): <1 µg·min/mL
AUC ([2]; Drug 3, 1200 min): <1 µg·min/mL
AUC90 ([2]; Drug 3, after 90 minutes): <1 µg·min/mL
C1200 ([2]; Drug 3 concentration at 1200 minutes): <1 µg/mL
Cmax,90 ([2]; maximum concentration of Drug 3 during the first 90 minutes): <1000 ng/mL
SMILES: CCOC(=O)N1c2ccc(C(F)(F)F)cc2[C@@H](N(Cc2cc(C(F)(F)F)cc(C(F)(F)F)c2)C(=O)OC)C[C@H]1CC [Control C9, [2R,4S] 4-[(3,5-bis-trifluoromethyl-benzyl)-methoxycarbonyl-amino]-2-ethyl-6-trifluoromethyl-3,4-dihydro-2H-quinoline-1-carboxylic acid ethyl ester]

Drug 4 Concentration ([3]; 0 min): 0 µg/mL
Drug 4 Concentration ([3]; 4 min): 360 µg/mL
Drug 4 Concentration ([3]; 10 min): 382 µg/mL
Drug 4 Concentration ([3]; 20 min): 372 µg/mL
Drug 4 Concentration ([3]; 40 min): 345 µg/mL
Drug 4 Concentration ([3]; 90 min): 262 µg/mL
Drug 4 Concentration ([3]; 1200 min): 154 µg/mL
AUC ([3]; Drug 4, 0 min): 0 µg·min/mL
AUC ([3]; Drug 4, 4 min): 700 µg·min/mL
AUC ([3]; Drug 4, 10 min): 2,900 min*μg/mL
AUC ([3]; Drug 4, 20 min): 6,700 min*μg/mL
AUC ([3]; Drug 4, 40 min): 13,900 min*μg/mL
AUC ([3]; Drug 4, 90 min): 29,100 min*μg/mL
AUC ([3]; Drug 4, 1200 min): 259,800 min*μg/mL
AUC90 ([3]; Drug 4, after 90 minutes): 29,100 min*μg/mL
C1200 ([3]; Drug 4 concentration at 1200 minutes): 154 µg/mL
Cmax,90 ([3]; maximum concentration of Drug 4 during the first 90 minutes): 382000 ng/mL
SMILES: O=C(N[C@@H](Cc1ccccc1)[C@@H](O)C(=O)N1C[C@@H](O)[C@@H](O)C1)c1cc2cc(Cl)ccc2[nH]1 [Control C11, 5-chloro-1H-indole-2-carboxylic acid [(1S)-benzyl-3-((3R, 4S)-dihydroxypyrrolidin-1-yl-)-(2R)-hydroxy-3-oxypropyl] amide]

Drug 5 Concentration ([4]; 0 min): 0 µg/mL
Drug 5 Concentration ([4]; 4 min): 16 µg/mL
Drug 5 Concentration ([4]; 10 min): 8 µg/mL
Drug 5 Concentration ([4]; 20 min): 5 µg/mL
Drug 5 Concentration ([4]; 40 min): 4 µg/mL
Drug 5 Concentration ([4]; 90 min): 4 µg/mL
Drug 5 Concentration ([4]; 1200 min): 4 µg/mL
AUC ([4]; Drug 5, 0 min): 0 µg·min/mL
AUC ([4]; Drug 5, 4 min): 0 µg·min/mL
AUC ([4]; Drug 5, 10 min): 100 µg·min/mL
AUC ([4]; Drug 5, 20 min): 200 µg·min/mL
AUC ([4]; Drug 5, 40 min): 300 µg·min/mL
AUC ([4]; Drug 5, 90 min): 500 µg·min/mL
AUC ([4]; Drug 5, 1200 min): 4,900 min*μg/mL
AUC90 ([4]; Drug 5, after 90 minutes): 500 µg·min/mL
C1200 ([4]; Drug 5 concentration at 1200 minutes): 4 µg/mL
Cmax,90 ([4]; maximum concentration of Drug 5 during the first 90 minutes): 16000 ng/mL
SMILES: CS(=O)(=O)O.O=C1Cc2cc(CCN3CCN(c4nsc5ccccc45)CC3)c(Cl)cc2N1 [Control C13]
